Patent US7456167B2, “Cyclopropyl fused indolobenzazepine HCV NS5B inhibitors” (Bristol-Myers Squibb Company, priority 2006, dated 2008)
Read-outs that look alike come from different tables or passages of the source.

Columns and labels:
[1] = molecular target: T1, HCV NS5B RdRp genotype 1b (Hepatitis C virus genotype 1b, UniProt Q9WMX2); assay: Modified HCV NS5B RdRp enzyme assay (preincubation protocol); type: biochemical
T1 construct: The protein was expressed with an 18 amino acid C-terminal truncation to enhance the solubility; made in house; host or cells: E. coli BL21(DE3)
Method: HCV NS5B RdRp cloning, expression, and purification. The cDNA encoding the NS5B protein of HCV, genotype 1b, was cloned into the pET21a expression vector. The protein was expressed with an 18 amino acid C-terminal truncation to enhance the solubility. The E. coli competent cell line BL21(DE3) was used for expression of the protein. Cultures were grown at 37° C. for ˜4 hours until the cultures reached an optical density of 2.0 at 600 nm. The cultures were cooled to 20° C. and induced with 1 mM IPTG. Fresh ampicillin was added to a final concentration of 50 μg/ml and the cells were grown overnight at 20° C.
Cell pellets (3 L) were lysed for purification to yield 15-24 mgs of purified NS5B. The lysis buffer consisted of 20 mM Tris-HCl, pH 7.4, 500 mM NaCl, 0.5% triton X-100, 1 mM DTT, 1 mM EDTA, 20% glycerol, 0.5 mg/ml lysozyme, 10 mM MgCl2, 15 ug/ml deoxyribonuclease I, and Complete TM protease inhibitor tablets (Roche). After addition of the lysis buffer, frozen cell pellets were resuspended using a tissue homogenizer. To reduce the viscosity of the sample, aliquots of the lysate were sonicated on ice using a microtip attached to a Branson sonicator. The sonicated lysate was centrifuged at 100,000×g for 1 hr at 4° C. and filtered through a 0.2 μm filter unit (Corning).
The protein was purified using three sequential chromatography steps: Heparin sepharose CL-6B, polyU sepharose 4B, and Hitrap SP sepharose (Pharmacia). The chromatography buffers were identical to the lysis buffer but contained no lysozyme, deoxyribonuclease I, MgCl2 or protease inhibitor and the NaCl concentration of the buffer was adjusted according to the requirements for charging the protein onto the column. Each column was eluted with a NaCl gradient which varied in length from 5-50 column volumes depending on the column type. After the final chromatography step, the resulting purity of the enzyme is >90% based on SDS-PAGE analysis. The enzyme was aliquoted and stored at −80° C.
Standard HCV NS5B RdRp enzyme assay. HCV RdRp genotype 1b assays were run in a final volume of 60 μl in 96 well plates (Costar 3912). The assay buffer is composed of 20 mM Hepes, pH 7.5, 2.5 mM KCl, 2.5 mM MgCl2, 1 mM DTT, 1.6 U RNAse inhibitor (Promega N2515), 0.1 mg/ml BSA (Promega R3961), and 2% glycerol. All compounds were serially diluted (3-fold) in DMSO and diluted further in water such that the final concentration of DMSO in the assay was 2%. HCV RdRp genotype 1b enzyme was used at a final concentration of 28 nM. A polyA template was used at 6 nM, and a biotinylated oligo-dT12 primer was used at 180 nM final concentration. Template was obtained commercially (Amersham 27-4110). Biotinylated primer was prepared by Sigma Genosys. 3H-UTP was used at 0.6 μCi (0.29 μM total UTP). Reactions were initiated by the addition of enzyme, incubated at 30° C. for 60 min, and stopped by adding 25 μl of 50 mM EDTA containing SPA beads (4 μg/μl, Amersham RPNQ 0007). Plates were read on a Packard Top Count NXT after >1 hr incubation at room temperature.
Modified HCV NS5B RdRp enzyme assay. A modified enzyme assay was performed essentially as described for the standard enzyme assay except for the following: The biotinylated oligo dT12 primer was precaptured on streptavidin-coated SPA beads by mixing primer and beads in assay buffer and incubating at room temperature for one hour. Unbound primer was removed after centrifugation. The primer-bound beads were resuspended in 20 mM Hepes buffer, pH 7.5 and used in the assay at final concentrations of 20 nM primer and 0.67 μg/μl beads. Order of addition in the assay: enzyme (14 nM) was added to diluted compound followed by the addition of a mixture of template (0.2 nM), 3H-UTP (0.6 μCi, 0.29 μM), and primer-bound beads, to initiate the reaction; concentrations given are final. Reactions were allowed to proceed for 4 hours at 30° C.
IC50 values for compounds were determined using seven different [I]. […]

HCV replicon cells = assay: HCV replicon FRET assay; type: cell-based; conditions: Hepatitis C virus
Text: FRET Assay Preparation. To perform the HCV FRET screening assay, 96-well cell culture plates were used. The FRET peptide (Anaspec, Inc.) (Taliani et al., Anal. Biochem. 1996, 240, 60-67) contains a fluorescence donor, EDANS, near one end of the peptide and an acceptor, DABCYL, near the other end. The fluorescence of the peptide is quenched by […] resonance energy transfer (RET) between the donor and the acceptor, but as the NS3 protease cleaves the peptide the products are released from RET quenching and the fluorescence of the donor becomes apparent. The assay reagent was made as follows: 5× cell Luciferase cell culture lysis reagent from Promega (#E153A) diluted to 1× with dH2O, NaCl added to 150 mM final, the FRET peptide diluted to 20 uM final from a 2 mM stock.
To prepare plates, HCV replicon cells, with or without a Renilla luciferase reporter gene, were trypsinized and placed into each well of a 96-well plate with titrated test compounds added in columns 3 through 12; columns 1 and 2 contained a control compound (HCV protease inhibitor), and the bottom row contained cells without compound. The plates were then placed in a CO2 incubator at 37° C.
Assays. Subsequent to addition of the test compounds described above (FRET Assay Preparation), at various times the plate was removed and Alamar blue solution (Trek Diagnostics, #00-100) was added per well as a measure of cellular toxicity. After reading in a Cytoflour 4000 instrument (PE Biosystems), plates were rinsed with PBS and then used for FRET assay by the addition of 30 ul of the FRET peptide assay reagent described above (FRET Assay Preparation) per well. The plate was then placed into the Cytoflour 4000 instrument which had been set to 340 excite/490 emission, automatic mode for 20 cycles and the plate read in a kinetic mode. Typically, the signal to noise using an endpoint analysis after the reads was at least three-fold. Alternatively, after Alamar blue reading, plates were rinsed with PBS, 50 ul of DMEM (high glucose) without phenol red was added and plates were then used for luciferase assay using the Promega Dual-Glo Luciferase Assay System.
Compound analysis was determined by quantification of the relative HCV replicon inhibition and the relative cytotoxicity values. To calculate cytoxicity values, the average Alamar Blue fluorescence signals from the control wells were set as 100% non-toxic. The individual signals in each of the compound test wells were then divided by the average control signal and multiplied by 100% to determine […]. To calculate the HCV replicon inhibition values, an average background value was obtained from the two wells containing the highest amount of HCV protease inhibitor at the end of the assay period. These numbers were similar to those obtained from naïve Huh-7 cells.
The background numbers were then subtracted from the average signal obtained from the control wells and this number was used as 100% activity. The individual signals in each of the compound test wells were then divided by the averaged control values after background subtraction and multiplied by 100% to determine percent activity. EC50 values for a protease inhibitor titration were calculated as the concentration which caused a 50% reduction in FRET or luciferase activity. The two numbers generated for the compound plate, percent cytoxicity and percent activity were used to determine compounds of interest for further analysis.

[2] = HCV NS5B RdRp genotype 1b, preincubation protocol, read-out: IC50
[3] = HCV replicon cells, FRET assay, read-out: EC50

T1 sequence (Q9WMX2 2420-2992): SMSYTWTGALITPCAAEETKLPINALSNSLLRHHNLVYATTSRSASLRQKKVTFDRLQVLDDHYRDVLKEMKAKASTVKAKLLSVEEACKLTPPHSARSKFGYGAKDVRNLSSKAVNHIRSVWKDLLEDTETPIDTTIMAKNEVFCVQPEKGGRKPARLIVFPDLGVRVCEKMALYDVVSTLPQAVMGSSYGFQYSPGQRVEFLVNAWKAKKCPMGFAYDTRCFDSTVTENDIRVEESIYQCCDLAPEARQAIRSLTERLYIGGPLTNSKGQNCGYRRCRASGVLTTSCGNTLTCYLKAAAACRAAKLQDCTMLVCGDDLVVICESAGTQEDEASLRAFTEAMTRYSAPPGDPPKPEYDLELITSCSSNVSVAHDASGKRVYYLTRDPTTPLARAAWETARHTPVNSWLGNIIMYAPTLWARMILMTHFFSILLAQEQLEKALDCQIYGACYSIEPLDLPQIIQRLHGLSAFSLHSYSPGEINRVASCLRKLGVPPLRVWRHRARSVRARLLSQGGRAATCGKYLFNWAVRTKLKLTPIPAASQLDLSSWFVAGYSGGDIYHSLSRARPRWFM

| SMILES | IC50 [1, 2] [nM] | EC50 (HCV replicon cells; [3]) [nM] | IC50 [1] [nM] | EC50 (HCV replicon cells) [nM] |
| --- | --- | --- | --- | --- |
| COc1ccc2c(c1)CC(S(=O)(=O)CCN(C)C)Cn1c-2c(C2CCCCC2)c2ccc(C(=O)NS(=O)(=O)N(C)C)cc21 (stereo not drawn) | 20 to 1000 | 20 to 1000 | – | – |
| COc1ccc2c(c1)CC(S(=O)(=O)CCN1CCOCC1)Cn1c-2c(C2CCCCC2)c2ccc(C(=O)NS(=O)(=O)N(C)C)cc21 (stereo not drawn) | 20 to 1000 | 20 to 1000 | – | – |
| COc1ccc2c(c1)CC(S(=O)(=O)CCN1CCN(C)CC1)Cn1c-2c(C2CCCCC2)c2ccc(C(=O)NS(=O)(=O)N(C)C)cc21 (stereo not drawn) | 20 to 1000 | 20 to 1000 | – | – |
| COc1ccc2c(c1)C1CC1(S(=O)(=O)N1C3CCC1CN(C)C3)Cn1c-2c(C2CCCCC2)c2ccc(C(=O)O)cc21 (stereo not drawn) | – | – | 20 to 1000 | 20 to 1000 |
| COc1ccc2c(c1)C1CC1(S(=O)(=O)N1C3CCC1CN(C)C3)Cn1c-2c(C2CCCCC2)c2ccc(C(=O)NS(=O)(=O)N(C)C)cc21 (stereo not drawn) | – | – | 20 to 1000 | 20 to 1000 |
| COc1ccc2c(c1)C1CC1(S(=O)(=O)N1C3CCC1CC(C)(O)C3)Cn1c-2c(C2CCCCC2)c2ccc(C(=O)NS(=O)(=O)C(C)C)cc21 (stereo not drawn) | – | – | 20 to 1000 | 20 to 1000 |
| COc1ccc2c(c1)C1CC1(S(=O)(=O)N1C3CCC1CC(C)(O)C3)Cn1c-2c(C2CCCCC2)c2ccc(C(=O)NS(=O)(=O)N3CCOCC3)cc21 (stereo not drawn) | – | – | 20 to 1000 | 20 to 1000 |
| COc1ccc2c(c1)C1CC1(S(=O)(=O)N1C3CCC1CC(C)(O)C3)Cn1c-2c(C2CCCCC2)c2ccc(C(=O)NS(=O)(=O)N(C)C)cc21 (stereo not drawn) | – | – | 20 to 1000 | 20 to 1000 |
| COC[C@@H]1CN(S(=O)(=O)C23CC2c2cc(OC)ccc2-c2c(C4CCCCC4)c4ccc(C(=O)NS(=O)(=O)N5CCOCC5)cc4n2C3)CCO1 (stereo partly drawn) | 20 to 1000 | 20 to 1000 | – | – |
| COc1ccc2c(c1)C1CC1(S(=O)(=O)N1CCN3CCCC3C1)Cn1c-2c(C2CCCCC2)c2ccc(C(=O)NS(=O)(=O)C(C)C)cc21 (stereo not drawn) | 20 to 1000 | 20 to 1000 | – | – |
| COc1ccc2c(c1)C1CC1(S(=O)(=O)N1CCN3CCCC3C1)Cn1c-2c(C2CCCCC2)c2ccc(C(=O)NS(=O)(=O)N(C)C)cc21 (stereo not drawn) | 20 to 1000 | 20 to 1000 | – | – |
| COc1ccc2c(c1)C1CC1(S(=O)(=O)N1CCC[C@H]3CN(Cc4ccccc4)C[C@H]31)Cn1c-2c(C2CCCCC2)c2ccc(C(=O)NS(=O)(=O)N3CCOCC3)cc21 (stereo partly drawn) | 20 to 1000 | 20 to 1000 | – | – |
| COc1ccc2c(c1)C1CC1(S(=O)(=O)N1CC[C@@H](N(C)C)C1)Cn1c-2c(C2CCCCC2)c2ccc(C(=O)NS(=O)(=O)C(C)C)cc21 (stereo partly drawn) | 20 to 1000 | 20 to 1000 | – | – |
| COc1ccc2c(c1)C1CC1(S(=O)(=O)N1CC[C@@H](N(C)C)C1)Cn1c-2c(C2CCCCC2)c2ccc(C(=O)NS(=O)(=O)N3CCOCC3)cc21 (stereo partly drawn) | 20 to 1000 | 20 to 1000 | – | – |
| COc1ccc2c(c1)C1CC1(S(=O)(=O)N1CC[C@@H](N(C)C)C1)Cn1c-2c(C2CCCCC2)c2ccc(C(=O)NS(=O)(=O)N(C)C)cc21 (stereo partly drawn) | 20 to 1000 | 20 to 1000 | – | – |
| COc1ccc2c(c1)C1CC1(S(=O)(=O)N1CCC1)Cn1c-2c(C2CCCCC2)c2ccc(C(=O)NS(=O)(=O)C(C)C)cc21 (stereo not drawn) | 20 to 1000 | 20 to 1000 | – | – |
| COc1ccc2c(c1)C1CC1(S(=O)(=O)N1CCCC1)Cn1c-2c(C2CCCCC2)c2ccc(C(=O)NS(=O)(=O)C(C)C)cc21 (stereo not drawn) | 20 to 1000 | 20 to 1000 | – | – |
| COc1ccc2c(c1)C1CC1(S(=O)(=O)N1C3CCC1CC3)Cn1c-2c(C2CCCCC2)c2ccc(C(=O)NS(=O)(=O)C(C)C)cc21 (stereo not drawn) | – | – | 20 to 1000 | 20 to 1000 |
| COc1ccc2c(c1)C1CC1(S(=O)(=O)N1CCN3CCC1CC3)Cn1c-2c(C2CCCCC2)c2ccc(C(=O)NS(=O)(=O)N3CCOCC3)cc21 (stereo not drawn) | 20 to 1000 | 20 to 1000 | – | – |
| COc1ccc2c(c1)C1CC1(S(=O)(=O)N1CCCC1)Cn1c-2c(C2CCCCC2)c2ccc(C(=O)NS(=O)(=O)N3CCOCC3)cc21 (stereo not drawn) | 20 to 1000 | 20 to 1000 | – | – |
| CCN(C)S(=O)(=O)NC(=O)c1ccc2c(C3CCCCC3)c3n(c2c1)CC1(S(=O)(=O)N2C[C@@H](C)N(C)[C@@H](C)C2)CC1c1cc(OC)ccc1-3 (stereo partly drawn) | 20 to 1000 | 20 to 1000 | – | – |
| COc1ccc2c(c1)C1CC1(S(=O)(=O)N1C[C@@H](C)N(C)[C@@H](C)C1)Cn1c-2c(C2CCCCC2)c2ccc(C(=O)NS(=O)(=O)N3CCC3)cc21 (stereo partly drawn) | 20 to 1000 | 20 to 1000 | – | – |
| COc1ccc2c(c1)C1CC1(S(=O)(=O)N1C[C@@H](C)N(C)[C@@H](C)C1)Cn1c-2c(C2CCCCC2)c2ccc(C(=O)NS(=O)(=O)N3CCCC3)cc21 (stereo partly drawn) | 20 to 1000 | 20 to 1000 | – | – |
| COc1ccc2c(c1)C1CC1(S(=O)(=O)N1C[C@@H](C)N(C)[C@@H](C)C1)Cn1c-2c(C2CCCCC2)c2ccc(C(=O)NS(=O)(=O)N3CCOCC3)cc21 (stereo partly drawn) | 20 to 1000 | 20 to 1000 | – | – |
| COc1ccc2c(c1)C1CC1(S(=O)(=O)N1C[C@@H](C)N(C)[C@@H](C)C1)Cn1c-2c(C2CCCCC2)c2ccc(C(=O)NS(=O)(=O)N3CCN(C)CC3)cc21 (stereo partly drawn) | 20 to 1000 | 20 to 1000 | – | – |
| COc1ccc2c(c1)C1CC1(S(=O)(=O)N1C[C@@H](C)N(C)[C@@H](C)C1)Cn1c-2c(C2CCCCC2)c2ccc(C(=O)NS(C)(=O)=O)cc21 (stereo partly drawn) | 20 to 1000 | 20 to 1000 | – | – |
| CCS(=O)(=O)NC(=O)c1ccc2c(C3CCCCC3)c3n(c2c1)CC1(S(=O)(=O)N2C[C@@H](C)N(C)[C@@H](C)C2)CC1c1cc(OC)ccc1-3 (stereo partly drawn) | 20 to 1000 | 20 to 1000 | – | – |
